Test results as given in article PMC7281419, “New Conjugates of Polyhydroxysteroids with Long-Chain Fatty Acids from the Deep-Water Far Eastern Starfish Ceramaster patagonicus and Their Anticancer Activity” (Marine Drugs, 2020).
Where two headings read alike, the source gives them in different places.

Key:
[1] = test system: herpes simplex virus type 1 (HSV-1); set-up: method as in PMID 20523000; conditions: in vitro; cited from earlier work
[2] = test system: human liver carcinoma HepG2 cells; set-up: method as in PMID 20523000; conditions: in vitro; cited from earlier work
[3] = MTS cell viability assay (cytotoxic / cytostatic activity); format: cell-based, mouse; conditions: mouse, JB6 Cl41 cells (normal epidermal), 100 µM, 24 h incubation, read-out: suppression of cell viability
Description: (§1) At the first stage of biological activity evaluation, the cytotoxicity of compounds 1–4 against mouse normal epidermal JB6 Cl41 cells, human breast cancer MDA-MB-231 cells, and colorectal carcinoma HCT 116 cells was determined by MTS assay, which is based on the cleavage of (3-(4,5-dimethylthiazol-2-yl)-5-(3-carboxymethoxyphenyl)-2-(4-sulfophenyl)-2H-tetrazolium) (MTS reagent) into a formazan product soluble in tissue culture medium.
(§2) That is why the cytostatic activity of compounds 1–4 was determined against JB6 Cl41, MDA-MB-231, and HCT 116 cell lines for 24, 48, and 72 h. […] The cytostatic effect of 2 was more prominent in colorectal carcinoma HCT 116 cells.
(§3) Figure 3 The cytostatic activity of compounds 1–4 against normal epidermal JB6 Cl41 cells, breast cancer MDA-MB-231 cells, and colorectal carcinoma HCT 116 cells. (A) JB6 Cl41, (B) MDA-MB-231, or (C) HCT 116 cells were treated with compounds 1–4 at concentrations of 1–100 µM for 24, 48, and 72 h. Cell viability was estimated using the MTS assay. Data are represented as the mean ± SD as determined from triplicate experiments.
(§4) To determine the cytotoxicity of compounds 1–4, JB6 Cl41, MDA-MB-231, and HCT 116 cells (1.0 × 10^4) were seeded in 200 µL of complete MEM/5% FBS, DMEM/10% FBS, and McCoy’s 5A/10% FBS medium, respectively, and incubated for 24 h at 37 °C in 5% CO2 incubator. The attached cells were incubated with fresh medium containing various concentrations of 1–4 (0–100 µM) or equivalent volume of DMSO (control) for additional 24 h. Subsequently, the cells were incubated with 15 µL MTS reagent for 3 h, and the absorbance of each well was measured at 490/630 nm using Power Wave XS microplate reader (BioTek, Winooski, VT, USA). All experimental conditions were assessed in triplicate.
(§5) To determine the effect of compounds 1–4 on cell proliferation, the tested cell lines (8 × 10^3 cells/200 µL) were treated with tested compounds at concentrations of 1, 10, 50, and 100 µM or equivalent volume of DMSO (control) and incubated for additional 24, 48, and 72 h at 37 °C in 5% CO2. MTS reagent (20 µL) was added to each well, and the cells were incubated for additional 3 h in 5% CO2 incubator. Absorbance was measured at 490/630 nm by microplate reader. All experimental conditions were assessed in triplicate.

JB6 Cl41 cells = experiment: as above; format: cell-based, mouse; conditions: Mus musculus, 72 h incubation, read-out: concentration that caused 50% inhibition of growth (IC50)
Description: as §1, §2, §3, §4, §5

[4] = as above; format: cell-based, human; conditions: human, 100 µM, 24 h incubation, read-out: suppression of cell viability
Description: as §1, §2, §3, §4, §5

HCT 116 cells [5] = experiment: as above; format: cell-based, human; conditions: for IC50: Homo sapiens, 72 h incubation, read-out: concentration that caused 50% inhibition of growth (IC50)
Description: as §1, §2, §3, §4, §5

MDA-MB-231 cells [6] = experiment: as above; format: cell-based, human; conditions: for IC50: Homo sapiens, 72 h incubation, read-out: concentration that caused 50% inhibition of growth (IC50)
Description: as §1, §2, §3, §4, §5

HCT 116 cells [7] = experiment: Soft agar colony formation assay; format: cell-based; conditions: Homo sapiens, 336 h, 14 days
Description: (§6) The formation of colonies is one of the most stringent characteristics for malignant transformation in cells. In the present study the soft agar assay was used to investigate the effect of compounds 1–4 on capability of cancer cells to form colonies.
(§7) Figure 4 The effect of compounds 1–4 on colony formation in human cancer cells. MDA-MB-231 (A) or HCT 116 cells (B) (2.4 × 10^4) were treated with or without investigated compounds (20 µM) and applied onto 0.3% Basal Medium Eagle (BME) agar containing 10% FBS, 2 mM L-glutamine, and 25 µg/mL gentamicin. After 14 days of incubation, the number of colonies was evaluated under a microscope with the aid of the ImageJ software program. Results are expressed as the mean ± standard deviation (SD). The asterisks (** p < 0.01, *** p < 0.001) indicate a significant decrease in colony number of cancer cells treated by compounds compared with control.
(§8) To estimate the effects of 1–4 on colony formation (phenotype expression), MDA-MB-231 and HCT 116 cells (2.4 × 10^4 cells/200 µL) were treated equivalent volume of DMSO (control) or with compounds 1–4 (20 µM) in 1 mL of 0.3% Basal Medium Eagle (BME) agar containing 10% FBS, 2 mM L-glutamine, and 25 µg/mL gentamicin. The cultures were maintained in a 37 °C, 5% CO2 incubator for 14 days, and the cell colonies were scored using a Motic AE 20 microscope (XiangAn, Xiamen, China) and ImageJ software bundled with 64-bit Java 1.8.0_112 (NIH, Bethesda, MD, USA).

MDA-MB-231 cells [8] = experiment: Soft agar colony formation assay; format: cell-based; conditions: Homo sapiens, 336 h, 14 days
Description: as §6, §7, §8

HCT 116 cells [9] = experiment: Wound healing (cell migration) assay; format: cell-based, human; conditions: 20 µM, 48 h
Description: (§9) The metastasis process is proven to be the leading cause of cancer-related death. Metastasis is a multistep process that includes migration and invasion of cancer cells, hallmarks of malignancy. Therefore, we investigated the ability of compounds 1–4 to inhibit the migration of breast cancer MDA-MB-231 cells and colorectal carcinoma HCT 116 cells with high metastatic potential. […] Compounds 1, 3, and 4 prevented HCT 116 cell migration by 36%, 30%, and 24%, respectively (Figure 5). […]
(§10) Figure 5 The effect of compounds 1–4 on migration of human cancer cells. MDA-MB-231 (A,B) and HCT 116 (C,D) cells migration distance was estimated by measuring the width of the wound and expressed as a percentage of each control for the mean of wound closure area. All experiments were repeated at least three times in each group (n = 18 for control and each compound, n—quantity of photos). The magnification of representative photos is ×10. Results are expressed as the mean ± standard deviation (SD). The asterisks (* p < 0.05, ** p < 0.01, *** p < 0.001) indicate a significant decrease in migration of cells treated with compounds compared with the control.
(§11) MDA-MB-231 and HCT 116 cells (3 × 10^5 cells/mL) were seeded into six-well plates and grown to 80% confluence for 24 h. After removing the culture medium, the cells’ monolayer was scraped with a 200 µL sterile pipette tip to create a straight scratch. Then, MDA-MB-231 and HCT 116 cells were treated with equivalent volume of DMSO (control) or 1–4 at concentration of 20 µM and incubated for 48 h. All experiments were conducted in triplicate for each group. For the image analysis, cell migration into the wound area was photographed at the stages of 0 and 48 h using a Motic AE 20 microscope and ImageJ software. The cell migration distance was estimated by measuring the width of the wound and expressed as a percentage of each control for the mean wound closure area.

MDA-MB-231 cells [10] = experiment: Wound healing (cell migration) assay; format: cell-based, human; conditions: 20 µM, 48 h
Description: as §9, §10, §11

human lung cancer A549 = test system: human lung cancer A549; set-up: method as in PMID 15104487; conditions: cited from earlier work
melanoma SK-MEL-2 = test system: melanoma SK-MEL-2; set-up: method as in PMID 15104487; conditions: SK-MEL-2 cells; cited from earlier work
ovarian cancer SK-OV-3 = test system: ovarian cancer SK-OV-3; set-up: method as in PMID 15104487; conditions: SK-OV-3 cells; cited from earlier work
CNS cancer XF498 = test system: CNS cancer XF498; set-up: method as in PMID 15104487; conditions: cited from earlier work
colon cancer HCT15 = test system: colon cancer HCT15; set-up: method as in PMID 15104487; conditions: cited from earlier work
[11] = HCT 116 cells (colorectal carcinoma)
[12] = MDA-MB-231 cells (breast cancer)

| SMILES | inhibitory activity against HSV-1 [1] | inhibitory activity against HepG2 cells [2] | cytotoxicity at 24 h, 100 µM [3] [%] | IC50 (JB6 Cl41 cells) [µM] | cytotoxicity at 24 h, 100 µM [4, 11] [%] | cytotoxicity at 24 h, 100 µM [4, 12] [%] | IC50 (HCT 116 cells [5]) [µM] | IC50 (MDA-MB-231 cells [6]) [µM] | inhibition at 20 µM (HCT 116 cells [7]) [%] | inhibition at 20 µM (MDA-MB-231 cells [8]) [%] | prevention of cell migration (HCT 116 cells [9]) [%] | prevention of cell migration compared to control (MDA-MB-231 cells [10]) [%] | inhibitory activity against cell migration (in words) (MDA-MB-231 cells [10]) | toxicity against cell line (HCT 116 cells [5]; three days of treatment) | toxicity against cell line (MDA-MB-231 cells [6]; three days of treatment) | effective dose that inhibited viability of 50% cells (ED50) (human lung cancer A549) [µg/mL] | effective dose that inhibited viability of 50% cells (ED50) (melanoma SK-MEL-2) [µg/mL] | effective dose that inhibited viability of 50% cells (ED50) (ovarian cancer SK-OV-3) [µg/mL] | effective dose that inhibited viability of 50% cells (ED50) (CNS cancer XF498) [µg/mL] | effective dose that inhibited viability of 50% cells (ED50) (colon cancer HCT15) [µg/mL] |
| --- | --- | --- | --- | --- | --- | --- | --- | --- | --- | --- | --- | --- | --- | --- | --- | --- | --- | --- | --- | --- |
| CCCCC/C=C\CCCCCCCCCCCCC(=O)OC[C@@H](C)CCC[C@@H](C)[C@H]1[C@@H](O)[C@H](O)[C@@H]2[C@]1(C)CC[C@@H]1[C@@]3(C)CC[C@H](O)C[C@@H]3[C@@H](O)[C@@H](O)[C@]12O [(25S)-5α-cholestane-3β,6α,7α,8,15α,16β-hexaol-26-yl 14′Z-eicosenoate] | did not possess inhibitory activity | did not possess inhibitory activity |  |  |  |  |  |  |  |  |  |  |  |  |  |  |  |  |  |  |
| CCCCCCC=CCCCCC=CCCCC(=O)OCC(C)CCCC(C)C1C(O)C(O)C2C3CC(O)C4CC(O)CCC4(C)C3CCC12C [Compound 1, (25S)-5α-cholestane-3β,6β,15α,16β-tetraol-26-yl 5′Z,11′Z-octadecadienoate] |  |  | < 15 | 81 | < 15 | < 15 | 73 | 74 | 20 | 17 | 36 | 42 |  |  |  |  |  |  |  |  |
| CCCCCCC=CCCCCCCCCCC(=O)OCC(C)CCCC(C)C1C(O)C(O)C2C3CC(O)C4CC(O)CCC4(C)C3CCC12C [Compound 2, (25S)-5α-cholestane-3β,6β,15α,16β-tetraol-26-yl 11′Z-octadecenoate] |  |  | < 15 | 40 | < 15 | < 15 | 31 | 33 | 27 | 26 | 73 | 50 |  |  |  |  |  |  |  |  |
| CCCCCCCCC=CCCCCC=CCCCC(=O)OCC(C)CCCC(C)C1C(O)C(O)C2C3CC(O)C4CC(O)CCC4(C)C3CCC12C [Compound 3, (25S)-5α-cholestane-3β,6β,15α,16β-tetraol-26-yl 5′Z,11′Z-eicosadienoate] |  |  | < 15 | 79 | < 15 | < 15 | 71 | 73 | 18 | 15 | 30 |  | moderate inhibitory activity |  |  |  |  |  |  |  |
| CCCCCCCCCCCCC=CCCCCCC(=O)OCC(C)CCCC(C)C1C(O)C(O)C2C3CC(O)C4CC(O)CCC4(C)C3CCC12C [Compound 4, (25S)-5α-cholestane-3β,6β,15α,16β-tetraol-26-yl 7′Z-eicosenoate] |  |  | < 15 |  | < 15 | < 15 |  |  | 16 | 10 | 24 |  | moderate inhibitory activity | non-toxic | non-toxic |  |  |  |  |  |
| CC(C)[C@H](/C=C/[C@@H](C)[C@H]1C[C@@H](O)[C@H]2[C@@H]3C[C@H](O)[C@H]4C[C@@H](O)CC[C@]4(C)[C@H]3CC[C@@]21C)CO [certonardosterol D2] |  |  |  |  |  |  |  |  |  |  |  |  |  |  |  | 0.15 | 0.09 | 0.08 | 0.07 | 0.01 |
